The source of these data is PubChem BioAssay (NCI).

Each structure is given as a SMILES string.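 Exposure lasted 48 hours, with cells grown in 96-well plates and compounds tested at five concentrations. GI50 is the concentration that inhibits growth by half. TGI: total growth inhibition.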

Test in all cases: growth of human tumour cells (NCI), 48 h
The test system of assay [1] is HL-60(TB) leukemia.
In assay [2] the test system is IGROV1 ovarian.
The test system of assay [3] is LOX IMVI melanoma.
The subject of assay [4] is MDA-MB-231 breast.
Assay [5] concerns NCI-H23 lung.
Assay [6] has as its system OVCAR-8 ovarian.
The test system of assay [7] is RXF 393 renal.
Assay [8] has as its system U251 CNS.

With `CC1=C([Se]CC(OC(=O)CC[Se]c2ccccc2)C(=O)NCCCCCC(=O)OCc2ccccc2)C(=O)c2ccccc2C1=O` (centres undefined), the GI50 in assay [1] is 2.75 µM; in assay [2], 1.31 µM; in assay [3], 1.81 µM; in assay [4], 1.95 µM; in assay [5], 2 µM; in assay [6] it was 2.44 µM. Also, the GI50 in assay [7] is 1.91 µM; in assay [8], 1.89 µM. The TGI in assay [1] was found to be 8.25 µM; in assay [2] it was 4.11 µM; in assay [3], 4.28 µM; in assay [4], 4.94 µM; in assay [5] it was 5.53 µM; in assay [6] it was 7.16 µM. Also, the TGI in assay [7] came to 5.64 µM; in assay [8], 4.07 µM.

On to `Oc1ccc(Cc2ccc(O)c3ncccc23)c2cccnc12`, for which the GI50 in assay [1] is 0.263 µM; in assay [2], 0.0776 µM; in assay [3], 0.0402 µM; in assay [4], 0.0487 µM; in assay [5] it was 0.0448 µM; in assay [6], 0.0477 µM. Also, the GI50 in assay [7] is 0.154 µM; in assay [8], 0.0355 µM. The TGI in assay [1], in assay [2], in assay [3], in assay [4], in assay [5] and in assay [6] was above 100 µM in each case. The TGI in assay [7] and in assay [8] was above 100 µM throughout.

As for `CC(=O)OC[C@H]1O[C@@H](n2ccc(=O)[nH]c2=O)[C@H](OC(C)=O)[C@@H]1OC(C)=O`, the GI50 in assay [1], in assay [2], in assay [3], in assay [4], in assay [5] and in assay [6] was above 100 µM in each case. Further, the GI50 in assay [7] and in assay [8] was above 100 µM throughout. Besides, the TGI in assay [1], in assay [2], in assay [3], in assay [4], in assay [5] and in assay [6] was above 100 µM each time. For the same compound, the TGI in assay [7] and in assay [8] was above 100 µM throughout.

As for `COc1cc2oc(=O)ccc2cc1C1OC(=O)C2OC21C` (centres undefined), the TGI in assay [1], in assay [2], in assay [3], in assay [4], in assay [5] and in assay [6] was above 100 µM throughout. Further, the TGI in assay [7] and in assay [8] was above 100 µM each time.

Consider `COc1ccccc1-[n+]1cc(-c2ccc(-c3ccccc3)cc2)n2c1CCCCC2`, for which the GI50 in assay [1] is 0.0429 µM; in assay [2], 0.617 µM; in assay [3] it was 0.322 µM; in assay [4] it was 0.276 µM; in assay [5], 0.101 µM; in assay [6], 0.528 µM. Besides, the GI50 was 0.867 µM in assay [7] and 0.383 µM in assay [8]. The TGI in assay [1] turned out to be 1.01 µM; in assay [2], 13.5 µM; in assay [3] it was 8.1 µM; in assay [4], 2.39 µM; in assay [5], 10.1 µM; in assay [6], 15.9 µM. The values for the TGI in assay [7] and in assay [8] were 9.5 µM and 15.7 µM, respectively.

Regarding `Cc1ccc(C(CN(C)C)C(=O)c2ccccc2)cc1` (centres undefined), the GI50 in assay [1] was 2.19 µM; in assay [2] it was 3.62 µM; in assay [3], 1.01 µM; in assay [4], 2.64 µM; in assay [5] it was 10.5 µM; in assay [6], 3.13 µM. The GI50 was 2.56 µM in assay [7] and 3.4 µM in assay [8]. The TGI in assay [1] was determined as 5.24 µM; in assay [2], 11.5 µM; in assay [3] it was 2.27 µM; in assay [4], 7.07 µM; in assay [5], 26.7 µM; in assay [6], 11.3 µM. In addition, the results for the TGI in assay [7] and in assay [8] were 7.52 µM and 12.8 µM, respectively.

For `Cc1c(N=Nc2ccc([N+](=O)[O-])cc2)nc2scc(-c3ccccc3)n12`, the TGI in assay [1] was 49.2 µM; in assay [2] it was above 100 µM; in assay [3] it was above 100 µM; in assay [4] it was above 100 µM; in assay [5] it was above 100 µM; in assay [6], above 100 µM. For the same compound, the TGI in assay [7] and in assay [8] was above 100 µM throughout.

On to `CCCCn1c2cc(OCc3cn(-c4ccc(Cl)cc4)nn3)ccc2c2ccnc(C)c21`, for which the GI50 in assay [1] is 5.09 µM; in assay [2], 9.02 µM; in assay [3], 5.91 µM; in assay [4], 7.26 µM; in assay [5], 7.23 µM; in assay [6], 6.42 µM. Further, the GI50 is 6.5 µM in assay [7] and 5.66 µM in assay [8]. Further, the TGI was 12.6 µM in assay [1]; above 33.3 µM in assay [2]; 12.3 µM in assay [3]; 24.6 µM in assay [4]; 26.6 µM in assay [5]; 23.9 µM in assay [6]. The figures for the TGI in assay [7] and in assay [8] were 19.8 µM and 12.6 µM, respectively.

In the case of `O=c1cccc(C#CC#C[C@H]2O[C@@H]2CO)o1`, the GI50 was 1.47 µM in assay [1]; 0.624 µM in assay [2]; 0.31 µM in assay [3]; 0.419 µM in assay [4]; 0.347 µM in assay [5]; 0.341 µM in assay [6]. Also, the GI50 in assay [7] was 0.448 µM; in assay [8], 0.355 µM. Besides, the TGI in assay [1] was above 100 µM; in assay [2], 1.85 µM; in assay [3], 0.901 µM; in assay [4], 1.02 µM; in assay [5], 1.21 µM; in assay [6] it was 1.43 µM. Further, the TGI in assay [7] came out at 1.74 µM; in assay [8], 0.958 µM.

Take `COc1cc(Nc2nc3cc(N)cc(N)c3nc2-c2ccccc2)cc(OC)c1`: the GI50 in assay [1] is 9.99 µM; in assay [2], 2.7 µM; in assay [3], 15.2 µM; in assay [4] it was 6.5 µM; in assay [5] it was 27.5 µM; in assay [6], 6.2 µM. Also, the values for the GI50 in assay [7] and in assay [8] were 3.15 µM and 22.9 µM, respectively. The TGI in assay [1] was above 100 µM; in assay [2] it was 17.1 µM; in assay [3] it was 50.6 µM; in assay [4] it was 34.3 µM; in assay [5] it was above 100 µM; in assay [6] it was 47 µM. Further, the TGI is 18.8 µM in assay [7] and above 100 µM in assay [8].

In the case of `N#Cc1c(C(=O)c2ccccc2)cnn1-c1ccccc1`, the GI50 in assay [1], in assay [2], in assay [3], in assay [4], in assay [5] and in assay [6] was above 25 µM throughout. Further, the GI50 in assay [7] and in assay [8] was above 25 µM each time. The TGI in assay [1], in assay [2], in assay [3], in assay [4], in assay [5] and in assay [6] was above 25 µM in each case. Besides, the TGI in assay [7] and in assay [8] was above 25 µM each time.

In the case of `CN(C)CCCn1c2c(c3cnccc3c1=O)C(=O)c1ccccc1-2`, the GI50 in assay [1] is 0.514 µM; in assay [2], 0.411 µM; in assay [3], 0.303 µM; in assay [4], 0.623 µM; in assay [5] it was 0.55 µM; in assay [6], 0.313 µM. Also, the GI50 in assay [7] was 0.396 µM; in assay [8], 0.425 µM. For the same compound, the TGI in assay [1] was 4.65 µM; in assay [2], 3.75 µM; in assay [3] it was 4.18 µM; in assay [4], 3.1 µM; in assay [5] it was 3.73 µM; in assay [6], 44.1 µM. The results for the TGI in assay [7] and in assay [8] were 2.05 µM and 11.4 µM, respectively.

As to `COc1ccc(-n2c(SCc3cc(OC)c(OC)c(OC)c3)nc3ccc(C)cc3c2=O)c(OC)c1`, the GI50 in assay [1] is 2.14 µM; in assay [2], 7.2 µM; in assay [3], 5.23 µM; in assay [4], 4.15 µM; in assay [5], 5.24 µM; in assay [6], 5.14 µM. Besides, the GI50 was 4 µM in assay [7] and 4.86 µM in assay [8]. The TGI in assay [1] was 4.77 µM; in assay [2], above 100 µM; in assay [3], above 100 µM; in assay [4] it was above 100 µM; in assay [5], above 100 µM; in assay [6] it was above 100 µM. For the same compound, the TGI in assay [7] and in assay [8] was above 100 µM each time.

On to `C=C1C(=O)O[C@H]2[C@H]1CC/C(COC(=O)NCc1cc3ccccc3[nH]1)=C\CC[C@@]1(C)O[C@@H]21`, for which the GI50 in assay [1] is 0.865 µM; in assay [2] it was 1.46 µM; in assay [3] it was 1.26 µM; in assay [4], 1.65 µM; in assay [5], 2.16 µM; in assay [6] it was 2.02 µM. For the same compound, the results for the GI50 in assay [7] and in assay [8] were 1.09 µM and 4.59 µM, respectively. Moreover, the TGI in assay [1] came to 3.16 µM; in assay [2] it was 3.46 µM; in assay [3], 2.61 µM; in assay [4], 3.57 µM; in assay [5], 5.18 µM; in assay [6], 5.41 µM. Moreover, the TGI worked out at 2.36 µM in assay [7] and 16.4 µM in assay [8].

For the compound `O=C(O)c1cc2ccccc2c(O)c1O`, the TGI in assay [1] was above 74.3 µM; in assay [2], 34.7 µM; in assay [3] it was 14.9 µM; in assay [4], 32.7 µM; in assay [5], 22.5 µM; in assay [6] it was 27.4 µM. Also, the figures for the TGI in assay [7] and in assay [8] were 31.7 µM and 31 µM, respectively.

On to `O=c1cc(C(F)(F)F)c2cc3c(cc2o1)NCCC3`, for which the TGI in assay [1], in assay [2], in assay [3], in assay [4], in assay [5] and in assay [6] was above 100 µM in each case. For the same compound, the values for the TGI in assay [7] and in assay [8] were 0.987 µM and 63.4 µM, respectively.

As for `CC(=O)Nc1ccc(/C=C/[N+](=O)[O-])cc1`, the TGI in assay [1] is 6.44 µM; in assay [2] it was 7.35 µM; in assay [3], 3.91 µM; in assay [4] it was 5.12 µM; in assay [5], 10.9 µM; in assay [6], 15.4 µM. Moreover, the results for the TGI in assay [7] and in assay [8] were 6.43 µM and 11.6 µM, respectively.

As for `O=C(/C=C/c1cccnc1)NCCCCC1CCN(C(=O)c2ccccc2)CC1`, the GI50 in assay [1] is above 65.6 µM; in assay [2], above 47.3 µM; in assay [3], above 100 µM; in assay [4], above 100 µM; in assay [5], above 100 µM; in assay [6], below 0.01 µM. Further, the GI50 in assay [7] was above 100 µM. Besides, the TGI in assay [1], in assay [2], in assay [3], in assay [4], in assay [5] and in assay [6] was above 100 µM in each case. Further, the TGI in assay [7] and in assay [8] was above 100 µM each time.

As for `OCc1cn(Cc2cccc(Cl)c2)c2ccccc12`, the GI50 in assay [1] is 5.38 µM; in assay [2] it was below 0.0271 µM; in assay [3], 6.71 µM; in assay [4], 8.37 µM; in assay [5] it was 13.3 µM; in assay [6], 10.9 µM. For the same compound, the values for the GI50 in assay [7] and in assay [8] were 2.43 µM and 0.865 µM, respectively. Further, the TGI in assay [1] was determined as 21.1 µM; in assay [2] it was 0.507 µM; in assay [3], 25.8 µM; in assay [4], 31.7 µM; in assay [5], 43.5 µM; in assay [6], 66.9 µM. The values for the TGI in assay [7] and in assay [8] were 18 µM and 22.6 µM, respectively.

In the case of `c1ccc(Cc2nc3ccc(Nc4ncnc5ccccc45)cc3[nH]2)cc1`, the GI50 was 20 µM in assay [1]; 16.2 µM in assay [2]; 17.3 µM in assay [3]; above 25 µM in assay [4]; above 25 µM in assay [5]; above 25 µM in assay [6]. Also, the GI50 in assay [7] and in assay [8] was above 25 µM in each case. Also, the TGI in assay [1], in assay [2], in assay [3], in assay [4], in assay [5] and in assay [6] was above 25 µM in each case. For the same compound, the TGI in assay [7] and in assay [8] was above 25 µM each time.
